Earlier results as cited in patent US8633332B2, “Efficient isolation of cimiracemate A, and methods of use” (Purapharm Company Limited, priority 2009, dated 2014).
“Also recorded” adds a separate entry of the source.

Legend:
[1] = system: specific transcription factors; conditions: human macrophages, LPS-induced
[2] = system: TNF-α; conditions: human macrophages
[3] = system: MAP kinase; conditions: human macrophages

In the case of `COc1ccc(/C=C/C(=O)OCC(=O)Cc2ccc(O)c(O)c2)cc1O` [Cimiracemate A], the “inhibition of activation of specific transcription factors” value [1] is listed as “suppresses; also recorded: inhibit”, the “suppression of LPS-induced TNF-α production” value [2] is listed as “suppresses; also recorded: suppress” and the “inhibition of LPS-induced MAP kinase activities (specific kinase phosphorylation)” value [3] is listed as “suppresses; also recorded: inhibit”.
